Test results from patent US20260345555A1, “Compositions and Methods for Protecting Salivary Glands from Off-Target Radiation Damage” (University of Rochester, priority 2022, published 2026).
Values belong to the compound of their own block, whether it stands above or below them.

What was measured:
[1] = test system: Reduced glutathione in salivary gland cell clusters (SGm); assay: Glutathione assay in salivary gland tissue chip, 4 days post-radiation (15 Gy); also first screen of Selleck library at 100 μM; assay type: cell-based, mouse; details: for Estimated EC50, Glutathione: nonlinear fit in Prism of dose response curves; for prevention of radiation-induced reduction of glutathione levels: 4 days post-radiation; on Glutathione (radioprotection): key: +: radioprotection; ~: partial radioprotection; —: no radioprotection
Method in brief: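 Mouse submandibular gland cell clusters (20–100 μm) in PEG hydrogel on microbubble chips, cultured 4 days to form SGm, then dosed 30 min before and during 15 Gy irradiation and washed out 30 min after. Glutathione measured 4 days post-radiation; library compounds screened at 100 μM, hits matching 0 Gy levels.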

[2] = test system: lymphocyte cells; details: cited from earlier work
[3] = in vivo; cited from earlier work
[4] = test system: COX-1; details: role: inhibitor; cited from earlier work
[5] = in vivo; cited from earlier work; remark: listed apart in the source
[6] = test system: COX-2; details: role: inhibitor; cited from earlier work

Estimated EC50, Glutathione ([1]; 15 Gy): 2.4 µM
Compound: CCn1cc(C(=O)O)c(=O)c2cc(F)c(N3CCNCC3)nc21 [Enoxacin (Penetrex)]
radioprotection in dose response, glutathione assay ([1]; dose response, 15 Gy): protection only at higher concentrations
EC50 ([2]; radioprotection, read-out: EC50, viability of lymphocyte cells): 13 µM
radioprotection of lymphocytes ([2]; viability of lymphocytes as primary readout): robust radioprotectors

Estimated EC50, Glutathione ([1]; 15 Gy): 0.08 µM
Compound: CCCCC1C(=O)N(c2ccccc2)N(c2ccccc2)C1=O [Phenylbutazone]
concentration range of radioprotection, glutathione assay ([1]; dose response, 15 Gy): 0.1 to 100 µM
bioavailability [3]: up to 90%
half-life [3]: 50 to 105 h
COX-1 inhibition [4]: inhibits
adverse effects [5]: rare but severe blood disorders, including anemia and leukopenia
COX-2 inhibition [6]: inhibits

Compound: NCCCNCCS [WR-1065]
prevention of radiation-induced reduction of glutathione levels ([1]; 0.1 mM, 15 Gy): ineffective
prevention of radiation-induced reduction of glutathione levels ([1]; 0.4 mM, 15 Gy): ineffective
Glutathione (radioprotection) ([1]; 1 mM): +
prevention of radiation-induced reduction of glutathione levels ([1]; 1 mM, 15 Gy): significant protection
Glutathione (radioprotection) ([1]; 4 mM): +
prevention of radiation-induced reduction of glutathione levels ([1]; 4 mM, 15 Gy): significant protection

Estimated EC50, Glutathione ([1]; 15 Gy): 8.6 µM
Compound: Doripenem hydrate
radioprotection in dose response, glutathione assay ([1]; dose response, 15 Gy): protection only at higher concentrations
